Active and inactive are the calls of the source.
Assays:
[1] = A cytotoxicity screen of small molecule inhibitors of the PhoP region in Salmonella typhi identified in the primary screen. [Related pubchem assays: 1850, 1864, 1985 ]; type: functional
[2] = target: Luciferin 4-monooxygenase (Photinus pyralis, UniProt P08659); experiment: firefly luciferase enzyme inhibitors, dose response, biochemical, luminescence (AID 1891)
[3] = Luminescence Cell-Based Dose Confirmation HTS to Identify Inhibitors of Platelet Dense Granule Release. [Related pubchem assays: 1663 (Primary HTS), 1678 (Summary of Project)]; type: functional
Cytochrome P450 3A4 = Cytochrome P450 3A4 (Homo sapiens, UniProt P08684); details: Potency;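 also: confirmatory qHTS run detecting inhibitors and substrates of CYP3A4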
[4] = inhibitors of HIV Env-driven cell fusion, dose response, cherry-pick (AID 652057); type: functional, cell-based
[5] = ZM109 Env clade C HIV-1 fusion inhibitors, dose response, HeLa effector, CEM target cells, luciferase, cherry-pick (AID 652058); type: functional, cell-based
[6] = inhibitors of clade B AD8 Env fusion, dose response, cell-based, cherry-pick (AID 652062); type: functional;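 also: luciferase signal from cell-cell fusion driven by HIV-1 clade B AD8 Env; potency is for inhibitors of fusion seen as a drop in luminescence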
[7] = target: T1, Sentrin-specific protease 7 (Homo sapiens, UniProt Q9BQF6); type: functional;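 also: Luminescence-based dose-response confirmation of ultra-high-throughput screening hits, measuring inhibition of SENP7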
T1 sequence (Q9BQF6 whole entry): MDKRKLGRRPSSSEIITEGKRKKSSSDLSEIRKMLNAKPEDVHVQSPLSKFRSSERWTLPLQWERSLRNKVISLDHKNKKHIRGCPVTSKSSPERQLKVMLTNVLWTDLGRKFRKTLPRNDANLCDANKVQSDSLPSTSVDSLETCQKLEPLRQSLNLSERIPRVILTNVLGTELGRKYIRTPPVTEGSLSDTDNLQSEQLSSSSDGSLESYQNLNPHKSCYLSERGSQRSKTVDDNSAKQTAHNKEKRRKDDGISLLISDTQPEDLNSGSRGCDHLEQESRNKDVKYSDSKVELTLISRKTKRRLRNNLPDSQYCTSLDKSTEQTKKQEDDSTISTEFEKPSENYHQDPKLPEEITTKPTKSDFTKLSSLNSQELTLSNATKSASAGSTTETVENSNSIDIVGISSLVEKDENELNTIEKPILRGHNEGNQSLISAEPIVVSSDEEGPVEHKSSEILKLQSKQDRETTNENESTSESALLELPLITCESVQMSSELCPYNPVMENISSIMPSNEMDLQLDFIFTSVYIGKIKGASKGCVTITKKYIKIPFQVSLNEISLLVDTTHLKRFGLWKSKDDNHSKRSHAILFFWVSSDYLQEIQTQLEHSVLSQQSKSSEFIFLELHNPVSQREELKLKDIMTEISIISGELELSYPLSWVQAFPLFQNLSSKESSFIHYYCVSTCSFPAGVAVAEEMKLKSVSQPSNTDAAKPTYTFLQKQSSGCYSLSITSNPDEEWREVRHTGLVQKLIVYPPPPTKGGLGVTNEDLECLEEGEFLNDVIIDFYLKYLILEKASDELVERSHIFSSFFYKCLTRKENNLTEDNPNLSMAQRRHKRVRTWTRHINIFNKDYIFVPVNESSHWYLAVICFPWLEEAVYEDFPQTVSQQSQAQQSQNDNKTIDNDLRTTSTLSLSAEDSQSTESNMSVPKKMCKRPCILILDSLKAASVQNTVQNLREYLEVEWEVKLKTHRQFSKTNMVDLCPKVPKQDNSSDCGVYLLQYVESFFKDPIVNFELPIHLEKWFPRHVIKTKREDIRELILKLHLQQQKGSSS

[8] = target: T2, Sentrin-specific protease 6 (Homo sapiens, UniProt Q9GZR1); type: functional;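 also: Luminescence-based dose-response confirmatory assay of SENP6 inhibition, following up an ultra-high-throughput screen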
T2 sequence (Q9GZR1 whole entry): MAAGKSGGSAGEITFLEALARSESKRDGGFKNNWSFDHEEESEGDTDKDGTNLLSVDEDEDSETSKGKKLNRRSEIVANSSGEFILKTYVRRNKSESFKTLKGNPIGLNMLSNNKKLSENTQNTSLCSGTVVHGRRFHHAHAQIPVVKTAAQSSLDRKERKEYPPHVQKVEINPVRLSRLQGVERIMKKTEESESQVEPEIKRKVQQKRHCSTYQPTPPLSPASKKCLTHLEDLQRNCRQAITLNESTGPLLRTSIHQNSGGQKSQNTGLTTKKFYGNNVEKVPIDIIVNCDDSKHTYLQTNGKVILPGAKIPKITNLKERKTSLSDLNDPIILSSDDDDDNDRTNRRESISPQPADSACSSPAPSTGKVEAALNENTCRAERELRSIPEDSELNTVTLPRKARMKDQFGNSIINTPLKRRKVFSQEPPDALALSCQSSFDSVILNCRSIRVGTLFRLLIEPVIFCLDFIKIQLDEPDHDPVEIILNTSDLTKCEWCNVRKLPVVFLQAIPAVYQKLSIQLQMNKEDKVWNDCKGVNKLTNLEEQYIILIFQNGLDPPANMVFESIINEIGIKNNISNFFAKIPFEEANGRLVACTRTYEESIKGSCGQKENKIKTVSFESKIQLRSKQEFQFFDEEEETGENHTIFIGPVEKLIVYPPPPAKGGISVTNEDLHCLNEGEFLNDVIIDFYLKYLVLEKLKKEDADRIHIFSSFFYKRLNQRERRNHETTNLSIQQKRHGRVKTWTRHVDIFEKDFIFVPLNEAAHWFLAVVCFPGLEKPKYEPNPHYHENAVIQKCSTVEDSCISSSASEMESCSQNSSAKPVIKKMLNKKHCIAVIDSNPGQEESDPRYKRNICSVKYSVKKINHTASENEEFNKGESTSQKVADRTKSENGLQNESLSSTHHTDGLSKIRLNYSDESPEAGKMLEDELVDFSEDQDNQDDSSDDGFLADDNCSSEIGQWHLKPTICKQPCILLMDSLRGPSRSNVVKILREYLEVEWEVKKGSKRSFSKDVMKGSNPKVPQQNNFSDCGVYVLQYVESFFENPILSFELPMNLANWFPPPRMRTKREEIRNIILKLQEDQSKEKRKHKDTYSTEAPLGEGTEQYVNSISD

[9] = target: T3, Sentrin-specific protease 8 (Homo sapiens, UniProt Q96LD8); type: functional;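 also: luminescence read-out of SENP8 inhibition, dose-response confirmation following an ultra-high-throughput screen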
T3 sequence (Q96LD8 whole entry): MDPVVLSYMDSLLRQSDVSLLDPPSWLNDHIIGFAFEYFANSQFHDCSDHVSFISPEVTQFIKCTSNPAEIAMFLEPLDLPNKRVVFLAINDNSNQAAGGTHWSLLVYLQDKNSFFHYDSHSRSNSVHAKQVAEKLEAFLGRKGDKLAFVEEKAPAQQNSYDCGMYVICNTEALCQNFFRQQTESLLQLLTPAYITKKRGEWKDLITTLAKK

[10] = P. falciparum Dd2 growth inhibitors, dose response, SYBR Green, cherry-picked samples (AID 1159567); type: functional, cell-based
[11] = HepG2 cell cytotoxicity, dose response, cytotoxicity control, cherry-picked samples (AID 1159577); type: functional, cell-based

Chain of Luciferin 4-monooxygenase (P08659 whole entry): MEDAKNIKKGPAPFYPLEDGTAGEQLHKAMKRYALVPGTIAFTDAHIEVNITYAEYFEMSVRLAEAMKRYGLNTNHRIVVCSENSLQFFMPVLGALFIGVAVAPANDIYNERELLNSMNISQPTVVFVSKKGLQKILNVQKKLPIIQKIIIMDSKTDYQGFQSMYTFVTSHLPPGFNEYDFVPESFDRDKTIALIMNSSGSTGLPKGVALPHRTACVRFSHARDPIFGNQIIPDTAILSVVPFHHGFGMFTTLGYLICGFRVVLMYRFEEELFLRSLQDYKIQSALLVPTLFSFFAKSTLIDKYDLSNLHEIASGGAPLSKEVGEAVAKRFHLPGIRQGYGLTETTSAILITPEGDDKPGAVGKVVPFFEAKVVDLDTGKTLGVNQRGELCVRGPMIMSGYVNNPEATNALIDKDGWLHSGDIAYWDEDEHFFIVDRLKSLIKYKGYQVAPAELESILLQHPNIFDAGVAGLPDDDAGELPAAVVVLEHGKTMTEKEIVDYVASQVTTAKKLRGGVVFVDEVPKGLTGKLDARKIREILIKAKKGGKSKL
Chain of Cytochrome P450 3A4 (P08684 whole entry, the tested form may be a part): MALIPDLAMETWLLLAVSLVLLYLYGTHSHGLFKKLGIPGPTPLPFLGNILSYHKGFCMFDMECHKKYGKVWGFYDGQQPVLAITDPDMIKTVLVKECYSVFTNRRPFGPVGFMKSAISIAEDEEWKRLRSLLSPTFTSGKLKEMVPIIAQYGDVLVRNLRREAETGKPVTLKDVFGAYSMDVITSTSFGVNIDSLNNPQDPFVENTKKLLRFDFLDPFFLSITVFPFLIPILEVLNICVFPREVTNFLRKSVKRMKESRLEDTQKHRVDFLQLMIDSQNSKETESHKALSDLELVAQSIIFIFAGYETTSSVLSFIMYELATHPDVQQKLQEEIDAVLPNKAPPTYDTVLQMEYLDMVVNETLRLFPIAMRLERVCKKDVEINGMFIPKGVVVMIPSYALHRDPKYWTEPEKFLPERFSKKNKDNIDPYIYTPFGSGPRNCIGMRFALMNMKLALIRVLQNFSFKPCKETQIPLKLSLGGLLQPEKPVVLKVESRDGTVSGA

O=C(Nc1cccnc1)c1cc(Br)c(Br)s1
EC50 [1]: > 50 µM (active)

CCOC(=O)c1cc2cc([N+](=O)[O-])ccc2oc1=O
EC50 [2]: > 112 µM (not active)
EC50 [3]: > 112 µM (not active)

COc1cccc2oc(-c3ccccc3)cc(=O)c12
AC50 (Cytochrome P450 3A4): 31.6 µM (inconclusive)

O=C(NCN1CCN(c2ccccn2)CC1)c1cnccn1
EC50 [2]: > 112 µM (not active)
EC50 [3]: > 112 µM (not active)

C[C@H](CO)N1C[C@H](C)[C@H](CN(C)S(=O)(=O)c2ccc(Cl)cc2)Oc2ccc(NC(=O)C3CCCCC3)cc2CC1=O
AC50 [4]: 1.36 µM (active)
AC50 [5]: 2.13 µM (active)
AC50 [6]: 20.1 µM (active)

C[C@H](CO)N1C[C@H](C)[C@@H](CN(C)C(=O)Nc2cccc3ccccc23)OCCCC[C@H](C)Oc2ccc(N(C)C)cc2C1=O
AC50 [5]: 24.8 µM (active)

COc1ccccc1NC(=O)N[C@@H]1CC[C@H](CC(=O)N[C@H](C)c2ccccc2)O[C@@H]1CO
AC50 [4]: 0.97 µM (active)
AC50 [5]: < 0.26 µM (active)
AC50 [6]: 2.61 µM (active)

Cc1[nH]n(C(N)=S)c(=O)c1/N=N/c1ccccc1C(F)(F)F
IC50 [7]: 12.7 µM (active)
IC50 [8]: 18.9 µM (active)
IC50 [9]: 15.5 µM (active)

C/C(=N\NC(=O)COc1ccccc1[N+](=O)[O-])c1cccs1
EC50 [1]: > 50 µM (active)

COc1cccc(CN2CC3(CCN(CC4CC4)CC3)c3c([nH]c4cc(OC)ccc34)[C@H]2CO)c1
AC50 [10]: 5 µM (active)
AC50 [11]: 19.7 µM (active)

COc1ccc(C#Cc2ccc([C@@H]3[C@H](CO)N4CCCCN(Cc5ccncc5)C[C@@H]34)cc2)cc1
AC50 [10]: 0.949 µM (active)
AC50 [11]: 13.6 µM (active)

CC(C)N(C[C@H]1N[C@H](CO)[C@@H]1c1ccc(C2=CCCC2)cc1)C(=O)CN(C)C
AC50 [10]: 5.21 µM (active)
AC50 [11]: > 39 µM (inactive)

C[C@@H]1CN([C@H](C)CO)S(=O)(=O)c2ccc(/C=C/c3ccccc3)cc2O[C@H]1CN(C)Cc1cccnc1
AC50 [10]: 3.7 µM (active)
AC50 [11]: 19.7 µM (active)

Source: ChEMBL document CHEMBL1201862, “PubChem BioAssay data set” (2004)
